The test system of one experiment is EU-1. In words: WST cytotoxicity assay, cancer cell EU-1. Conditions: Homo sapiens, EU-1, EU-1; no other cell line named in the cell; read-out: Cancer cell (EU-1) cytotoxicity IC50. Format: cell-based, human. The protocol: This study used two ALL cell lines (EU-1 and EU-3) and three NB cell lines (NB-1643, SHEP1 and LA1-55N). All 5 cancer cell lines were established from pediatric ALL or NB patients and were well-characterized for their expression of MDM2 and p53-status, as reported previously. All cell lines were grown in standard culture medium (RPMI 1640 containing 10% FBS, 2 mmol/L L-glutamine, 50 U penicillin and 50 μg/mL streptomycin) at 37° C. in a humidified atmosphere containing 5% CO2.
The cytotoxic effect of MX 69 and MX69 analogs on cancer cells was determined using the water-soluble tetrazolium salt (WST) assay. Briefly, cells cultured in 96-well microtiter plates were treated with different concentrations of AQ-101 for a 20-h period. WST (25 μg/well) was then added and incubation continued for an additional 4 h, after which optical density (OD) was read with a microplate reader (test wavelength of 450 nm; reference wavelength of 620 nm).
As to `Cc1cccc(NS(=O)(=O)c2ccc3c(c2)[C@H]2OCC[C@H]2[C@H](c2ccc(C(=O)C(C)C)cc2)N3)c1` [Compound 69L95], the IC50 was 1.42 µM.

`O=S(=O)(Nc1ccc(Cl)c(Cl)c1)c1ccc2nc(C3CCCCC3)ccc2c1` [Compound 69L105]: the IC50 was found to be 3.12 µM.

`Cc1cccc(NS(=O)(=O)c2ccc3c(c2)C(=O)CC(c2ccc(C(=O)C(C)C)cc2)N3)c1` (stereo not shown) [Compound 69L99, 2-(4-isobutyrylphenyl)-4-oxo-N-(m-tolyl)-1,2,3,4-tetrahydroquinoline-6-sulfonamide]: the IC50 was 0.23 µM.

As for `Cc1ccc(NS(=O)(=O)c2ccc3c(c2)[C@H]2OCC[C@H]2C(c2ccc(C(C)C)cc2)N3)cc1C` (stereo partly shown) [Compound 69L31], the IC50 was 4.24 µM.

`CC(C)C(=O)c1ccc([C@@H]2Nc3ccc(S(=O)(=O)Nc4ccc(C(F)(F)F)c(C(F)(F)F)c4)cc3C3OCC[C@H]32)cc1` (stereo in doubt) [Compound 69L92, N-(3,4-bis(trifluoromethyl)phenyl)-4-(4-isobutyrylphenyl)-2,3,3a,4,5,9b-hexahydrofuro[3,2-c]quinoline-8-sulfonamide]: the IC50 was over 10 µM.

As for `CC(C)C(=O)c1cccc(C2Nc3ccc(S(=O)(=O)Nc4cccc(C(C)O)c4)cc3C3OCC[C@@H]23)c1` (stereo partly shown) [Compound 69L122], the IC50 is over 10 µM.

Take `COC(=O)c1ccc([C@@H]2Nc3ccc(S(=O)(=O)Nc4ccc(C)c(C)c4)cc3[C@H]3C=CC[C@H]32)cc1` [Compound 69L16]: the IC50 worked out at 4.66 µM.

Take `CCc1cccc(NS(=O)(=O)c2ccc3nc(-c4cccc(C(=O)C(C)C)c4)c(OC)cc3c2)c1` [Compound 69L167]: the IC50 is 3.6 µM.

On to `COc1cc(NS(=O)(=O)c2ccc3c(c2)C(=O)CC(c2cccc(C(=O)C(C)C)c2)N3)ccc1C` (stereo not shown) [Compound 69L160, 2-(3-isobutyrylphenyl)-N-(3-methoxy-4-methylphenyl)-4-oxo-1,2,3,4-tetrahydroquinoline-6-sulfonamide], for which the IC50 came out at 0.54 µM.

`Cc1ccc(S(=O)(=O)Nc2ccc3c(c2)[C@H]2OCC[C@H]2C(c2ccc(C(=O)C(C)C)cc2)N3)cc1C` (stereo in doubt) [Compound 69L162, N-(4-(4-isobutyrylphenyl)-2,3,3a,4,5,9b-hexahydrofuro[3,2-c]quinolin-8-yl)-3,4-dimethylbenzenesulfonamide]: the IC50 is over 5 µM.

Consider `Cc1ccc(NS(=O)(=O)c2ccc3c(c2)C2NCC[C@H]2C(c2c[nH]c4ccccc24)N3)cc1C` (stereo partly shown) [Compound 69L37], for which the IC50 came to 4.81 µM.

In the case of `Cc1ccc(NS(=O)(=O)c2ccc3c(c2)C2CCC[C@H]2[C@H](c2ccc(C(O)C(C)C)cc2)N3)cc1C` (stereo partly shown) [Compound 69L86], the IC50 turned out to be 3.77 µM.

With `COC(=O)c1ccc(C2Nc3ccc(S(=O)(=O)Nc4ccc(C)c(C)c4)cc3C3NCC[C@@H]23)cc1` (stereo partly shown) [Compound 69L34], the IC50 was found to be 3.44 µM.

As to `COC(=O)c1ccc(C2Nc3ccc(S(=O)(=O)Nc4ccc(C)c(C)c4)cc3[C@H]3OCCC[C@@H]23)cc1` (stereo partly shown) [Compound 69L9], the IC50 is 4.56 µM.

As for `Cc1ccc(NS(=O)(=O)c2ccc3c(c2)[C@H]2OCC[C@H]2C(c2ccc(Br)cc2)N3)cc1C` (stereo partly shown) [Compound 69L8], the IC50 is 3.61 µM.

As for `O=S(=O)(Nc1ccc2c(c1)CCO2)c1ccc2c(c1)[C@H]1OCC[C@H]1C(c1ccccc1)N2` (stereo partly shown) [Compound 69L118], the IC50 is 0.15 µM.

Regarding `CC(C)C(=O)c1cccc(C2CC(=O)c3cc(S(=O)(=O)Nc4cccc(C#N)c4)ccc3N2)c1` (stereo not shown) [Compound 69L155], the IC50 is 1.45 µM.

As to `COC(=O)c1ccc([C@@H]2Nc3ccc(S(=O)(=O)Nc4ccc(C)c(C)c4)cc3[C@H]3OCC[C@H]32)cc1` [Compound 69L2], the IC50 lay in the range of 3.5 to 5.3 µM.

With `CCC(=O)c1cccc(NS(=O)(=O)c2ccc3c(c2)C(=O)CC(c2ccc4c(c2)CCO4)N3)c1` (stereo not shown) [Compound 69L129], the IC50 came to 0.65 µM.

Regarding `CC(=O)c1ccc([C@@H]2CC(O)c3cc(S(=O)(=O)Nc4ccc(C)c(C)c4)ccc3N2)cc1` (stereo partly shown) [Compound 69L47], the IC50 came out at 2.1 µM.

With `COC(=O)c1ccc([C@H]2Nc3ccc(S(=O)(=O)Nc4ccc(C)c(C)c4)cc3[C@H]3OCC[C@@H]23)cc1` [Compound 69L28], the IC50 is 8.4 to 11.9 µM.

Turning to `COc1cc(NS(=O)(=O)c2ccc3c(c2)C(=O)CC(c2cccc(C(C)=O)c2)N3)ccc1C` (stereo not shown) [Compound 69L164], the IC50 came to 0.71 µM.

Regarding `CC(=O)c1ccc(NS(=O)(=O)c2ccc3c(c2)[C@H]2OCC[C@H]2C(c2ccc(C(C)=O)cc2)N3)cc1` (stereo partly shown) [Compound 69L111], the IC50 is 1.37 µM.

Consider `C=CC(=O)c1ccc(C2Nc3ccc(S(=O)(=O)Nc4ccc(C)c(C)c4)cc3[C@H]3OCC[C@@H]23)cc1` (stereo partly shown) [Compound 69L71], for which the IC50 is 30 µM.

`CC(=O)c1cccc(C2CC(=O)c3cc(S(=O)(=O)Nc4cccc(C(C)C)c4)ccc3N2)c1` (stereo not shown) [Compound 69L135]: the IC50 was 0.15 µM.

Turning to `O=S(=O)(Nc1ccc2c(c1)CCO2)c1ccc2c(c1)C1OCC[C@H]1C(c1ccc3c(c1)CCO3)N2` (stereo partly shown) [Compound 69L128], the IC50 is 1.31 µM.

Turning to `Cc1ccc(NS(=O)(=O)c2ccc3c(c2)C2OCC[C@H]2[C@@H](c2ccc(C(=O)C(C)C)cc2)N3)cc1C` (stereo partly shown) [Compound 69L52b], the IC50 was 1.4 to 1.6 µM.

`CCc1cccc(NS(=O)(=O)c2ccc3c(c2)C(=O)C(F)C(c2cccc(C(=O)C(C)C)c2)N3)c1` (stereo not shown) [Compound 69L168]: the IC50 turned out to be 0.34 µM.

Take `COc1cc(NS(=O)(=O)c2ccc3c(c2)C(=O)CC(c2ccc(C(C)=O)cc2)N3)ccc1C` (stereo not shown) [Compound 69L165]: the IC50 was 8.9 µM.

On to `O=S(=O)(Nc1ccc(Br)c(Br)c1)c1ccc2c(c1)[C@H]1OCC[C@H]1[C@H](C1CCCCC1)N2` [Compound 69L68], for which the IC50 was determined as 5.1 µM.

As for `Cc1ccc(NS(=O)(=O)c2ccc3c(c2)[C@H]2c4ccccc4C[C@H]2[C@H](c2ccc(Br)cc2)N3)cc1C` [Compound 69L7], the IC50 is over 50 µM.

For the molecule `COC(=O)c1ccc([C@H]2Nc3ccc(S(=O)(=O)Nc4ccc(C)c(C)c4)cc3C3NCC[C@H]32)cc1` (stereo partly shown) [Compound 69L35], the IC50 is 4.86 µM.

As to `Cc1ccc(NS(=O)(=O)c2ccc3c(c2)[C@H]2OCC[C@H]2C(c2ccc(C(=O)C4CC4)cc2)N3)cc1Cl` (stereo partly shown) [Compound 69L69], the IC50 turned out to be 5.81 µM.

Regarding `COc1cccc(NS(=O)(=O)c2ccc3c(c2)C(=O)CC(c2cccc(C(=O)N(C)C)c2)N3)c1` (stereo not shown) [Compound 69L159, 3-(6-(N-(3-methoxyphenyl)sulfamoyl)-4-oxo-1,2,3,4-tetrahydroquinolin-2-yl)-N,N-dimethylbenzamide], the IC50 is 0.65 µM.

For `CC(=O)c1cccc(NS(=O)(=O)c2ccc3c(c2)C2NCC[C@H]2[C@H](c2ccc(C(=O)C(C)C)cc2)N3)c1` (stereo partly drawn) [69L130 cis], the IC50 was over 10 µM.

For `CC(=O)c1cccc(C2CC(=O)c3cc(S(=O)(=O)Nc4ccc5c(c4)OCO5)ccc3N2)c1` (stereo not shown) [Compound 69L147], the IC50 was 1.16 µM.

Regarding `CC(=O)c1cccc(S(=O)(=O)Nc2ccc3c(c2)[C@H]2OCC[C@H]2C(c2ccc(C(=O)C(C)C)cc2)N3)c1` (stereo partly shown) [Compound 69L163, 3-acetyl-N-(4-(4-isobutyrylphenyl)-2,3,3a,4,5,9b-hexahydrofuro[3,2-c]quinolone-8-yl)benzenesulfonamide], the IC50 came to 2.5 µM.

Turning to `Cc1ccc(NS(=O)(=O)c2ccc3c(c2)C(=O)CC(c2cccc(C(=O)N(C)C)c2)N3)cc1C` (stereo not shown) [Compound 69L158], the IC50 was found to be 0.63 µM.

For `Cc1ccc(NS(=O)(=O)c2ccc3c(c2)[C@H]2OCC[C@H]2[C@H](c2ccc(C(=O)O)cc2)N3)cc1C` [Compound 69L5], the IC50 is over 50 µM.

For the molecule `CC(C)C(=O)c1ccc(C2Nc3ccc(S(=O)(=O)Nc4cccc(C(C)C)c4)cc3[C@H]3OCC[C@@H]23)cc1` (stereo partly shown) [Compound 69L134], the IC50 turned out to be 6.53 µM.

`Cc1ccc(NS(=O)(=O)c2ccc3c(c2)[C@H]2OCCC[C@H]2C(c2ccc(C(=O)O)cc2)N3)cc1C` (stereo partly shown) [Compound 69L10]: the concentration for half-maximal inhibition (IC50) was over 50 µM.

Take `CN(C)c1cccc(NS(=O)(=O)c2ccc3c(c2)[C@H]2OCC[C@H]2[C@H](C2CCCCC2)N3)c1` [Compound 69L143]: the IC50 came out at 3.96 µM.

With `Cc1ccc(NS(=O)(=O)c2ccc3c(c2Cl)[C@H]2C=CC[C@H]2[C@H](c2ccc(S(C)(=O)=O)cc2)N3)cc1C` [Compound 69L23], the IC50 was found to be 23.4 µM.

As to `Cc1ccc(NS(=O)(=O)c2ccc3c(c2)[C@H]2OCC[C@H]2C(c2ccc(B4OCC(C)(C)CO4)cc2)N3)cc1C` (stereo partly shown) [Compound 69L17], the IC50 turned out to be 8.69 µM.

For the molecule `Cc1ccc(NS(=O)(=O)c2ccc3c(c2)C2OCC[C@@H]2[C@@H](c2ccc(C(=O)C(C)C)cc2)N3)cc1C` (stereo partly shown) [Compound 69L52c], the concentration for half-maximal inhibition (IC50) is 2.4 to 2.5 µM.

As to `Cc1ccc(NS(=O)(=O)c2ccc3c(c2)[C@H]2OCC[C@H]2C(c2ccc(S(C)(=O)=O)cc2)N3)cc1C` (stereo partly shown) [Compound 69L19], the IC50 amounted to 4.06 µM.

The target of another experiment is T1, MDM2 (Homo sapiens, UniProt Q00987).
T1 construct: ubiquitination of endogenous MDM2 in EU-1 cells; endogenous in cells; host or cells: EU-1 (ALL) cells
T1 sequence (Q00987 whole entry): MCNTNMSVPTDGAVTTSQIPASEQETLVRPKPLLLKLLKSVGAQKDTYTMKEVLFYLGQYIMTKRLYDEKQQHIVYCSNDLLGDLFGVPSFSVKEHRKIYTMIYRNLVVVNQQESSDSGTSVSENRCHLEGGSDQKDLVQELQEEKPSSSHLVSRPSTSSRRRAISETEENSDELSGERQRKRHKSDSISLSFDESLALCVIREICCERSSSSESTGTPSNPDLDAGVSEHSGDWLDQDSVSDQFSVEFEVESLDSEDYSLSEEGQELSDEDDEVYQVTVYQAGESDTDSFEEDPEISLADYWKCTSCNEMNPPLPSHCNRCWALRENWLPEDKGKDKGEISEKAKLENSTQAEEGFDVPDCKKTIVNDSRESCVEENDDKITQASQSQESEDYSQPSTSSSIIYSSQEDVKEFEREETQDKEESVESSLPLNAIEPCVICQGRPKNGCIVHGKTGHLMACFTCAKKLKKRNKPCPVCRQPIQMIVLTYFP
Nature of the experiment: MDM2 reduction / expression (Western blot). The experiment is classed as cell-based. Particulars: words or +/− grades, key not given. The protocol: Cells were lysed in a buffer composed of 50 mM Tris, pH 7.6, 150 mM NaCl, 1% Nonidet P-40, 10 mM sodium phosphate, 10 mM NaF, 1 mM sodium orthovanadate, 2 mM phenylmethylsulfonyl fluoride (PMSF), […], 10 μg/mL leupeptin and 10 μg/mL pepstatin. After centrifugation, the clarified cell lysate was separated from the pellet of cell debris, and then incubated with 15 μL Protein G/Protein A-agarose and 1 μg of antibodies, overnight at 4° C. For the Western blot, the resulting cell lysates or immunoprecipitates were resolved by SDS-PAGE. They were then transferred to a nitrocellulose filter and probed with the specific antibodies as listed in the supplemental Materials section. Finally, proteins were visualized with a chemiluminescent detection system.
`Cc1cccc(NS(=O)(=O)c2ccc3c(c2)[C@H]2OCC[C@H]2[C@H](c2ccc(C(=O)C(C)C)cc2)N3)c1` [Compound 69L95]: the MDM2 reduction entry is given as “inhibition”.

`O=S(=O)(Nc1ccc(Cl)c(Cl)c1)c1ccc2nc(C3CCCCC3)ccc2c1` [Compound 69L105]: the MDM2 reduction result is given as “No MDM2”.

With `Cc1cccc(NS(=O)(=O)c2ccc3c(c2)C(=O)CC(c2ccc(C(=O)C(C)C)cc2)N3)c1` (stereo not shown) [Compound 69L99, 2-(4-isobutyrylphenyl)-4-oxo-N-(m-tolyl)-1,2,3,4-tetrahydroquinoline-6-sulfonamide], the MDM2 reduction entry is recorded as “inhibition”.

Values taken from patent US20240059658A1 (Emory University, priority 2019, published 2024).
